Active and inactive are the calls of the source. No cut-off for these calls is given here.

The species named for experiment [1] is Homo sapiens. The experiment in a line: Binding affinity to human recombinant MBP-TMLD (42 to 421 residues) fusion protein expressed in Escherichia coli BL21-AI assessed as change in enthalpy by isothermal titration calorimetry. For orientation: Isothermal titration calorimetry measures the heat released or taken up as one component is titrated into another.

Experiment [2] can be described thus: Binding affinity to human recombinant MBP-TMLD (42 to 421 residues) fusion protein expressed in Escherichia coli BL21-AI by isothermal titration calorimetry.
The species named for experiment [3] is Homo sapiens. Put plainly: Binding affinity to human recombinant MBP-TMLD (42 to 421 residues) fusion protein expressed in Escherichia coli BL21-AI assessed as change in entropy by isothermal titration calorimetry.
The species named for experiment [4] is Homo sapiens. The experiment in a line: Binding affinity to human recombinant MBP-TMLD (42 to 421 residues) fusion protein expressed in Escherichia coli BL21-AI assessed as change in Gibbs free energy by isothermal titration calorimetry.
The species entered for experiment [5] is Homo sapiens. The experiment in a line: Substrate activity at human recombinant MBP-TMLD (42 to 421 residues) fusion protein expressed in Escherichia coli BL21-AI assessed as hydroxylated substrate formation at 500 uM in presence of alpha-ketoglutarate by proton 1D NMR spectroscopy.
For experiment [6], the species on record is Homo sapiens. Put plainly: Substrate activity at human recombinant MBP-TMLD (42 to 421 residues) fusion protein expressed in Escherichia coli BL21-AI assessed as ratio of succinate to hydroxylated substrate formation at 500 uM in presence of alpha-ketoglutarate by proton 1D NMR spectroscopy.
The species named for experiment [7] is Homo sapiens. The experiment in a line: Binding affinity to human recombinant MBP-TMLD (42 to 421 residues) fusion protein expressed in Escherichia coli BL21-AI in presence of 1.18 to 2 fold excess of co-factor Zn2+/OGA by isothermal titration calorimetry.
The species entered for experiment [8] is Homo sapiens. The experiment in a line: Binding affinity to human recombinant MBP-TMLD (42 to 421 residues) fusion protein expressed in Escherichia coli BL21-AI assessed as heat release at 300 uM in presence of co-factor alpha-ketoglutarate and Zn2+ by isothermal titration calorimetry.
The species named for experiment [9] is Homo sapiens. The experiment in a line: Binding affinity to human recombinant MBP-TMLD (42 to 421 residues) fusion protein expressed in Escherichia coli BL21-AI assessed as heat release at 300 uM in presence of co-factor OGA and Zn2+ by isothermal titration calorimetry.
For experiment [10], the species on record is Homo sapiens. Put plainly: Binding affinity to human recombinant MBP-TMLD (42 to 421 residues) fusion protein expressed in Escherichia coli BL21-AI assessed as heat release at 300 uM in presence of co-factor OGA and Co2+ by isothermal titration calorimetry.

For the molecule `CC(C)[N+](C)(C)CCCC[C@H](N)C(=O)O`, in the experiment listed under Homo sapiens [1], the deltaH is -5.6 kcal/mol. The Kd in experiment [2] amounted to 11.3 µM. The -TdeltaS in the experiment listed under Homo sapiens [3] was -1.2 kcal/mol. In addition, the deltaG in the experiment listed under Homo sapiens [4] is -6.75 kcal/mol. In the experiment filed under Homo sapiens [5], the Activity was 51%. Besides, the Ratio in the experiment filed under Homo sapiens [6] came out at 2.4.
For `CCCC[N+](C)(C)CCCC[C@H](N)C(=O)[O-]`, the deltaH in the experiment listed under Homo sapiens [1] is -0.6 kcal/mol. Further, the equilibrium dissociation constant (Kd) in experiment [2] came out at 16.4 µM. The -TdeltaS in the experiment listed under Homo sapiens [3] is -5.9 kcal/mol. The deltaG in the experiment listed under Homo sapiens [4] is -6.52 kcal/mol. The Activity in the experiment listed under Homo sapiens [5] is 39%. Also, the Ratio in the experiment listed under Homo sapiens [6] is 2.4.
Consider `CC(C)C(=O)N[C@@H](CCCC[N+](C)(C)C)C(=O)[O-]`, for which, in the experiment filed under Homo sapiens [5], the Activity turned out to be 12%. Moreover, in the experiment listed under Homo sapiens [6], the Ratio was found to be 3.9.
With `C[N+](C)(C)CCCC[C@H](N)C(=O)O`, the outcome in the experiment filed under Homo sapiens [7], in the experiment filed under Homo sapiens [8], in the experiment filed under Homo sapiens [9] and in the experiment listed under Homo sapiens [10] was Active. The deltaH in the experiment filed under Homo sapiens [1] is -5.48 kcal/mol. Moreover, the Kd in [2] is 5.78 µM. Further, in the experiment listed under Homo sapiens [3], the -TdeltaS is -1.66 kcal/mol. Besides, the deltaG in the experiment filed under Homo sapiens [4] was -7.15 kcal/mol. The Activity in the experiment filed under Homo sapiens [5] came out at 97%. For the same molecule, in the experiment filed under Homo sapiens [6], the Ratio stood at 1.3.
For the molecule `C[N+](C)(C)CCC[C@H](N)C(=O)O`, the deltaH in the experiment filed under Homo sapiens [1] is -4.5 kcal/mol. Also, in experiment [2], the Kd amounted to 7.6 µM. In the experiment listed under Homo sapiens [3], the -TdeltaS was -2.5 kcal/mol. For the same molecule, the deltaG in the experiment listed under Homo sapiens [4] was -6.9 kcal/mol. In the experiment filed under Homo sapiens [5], the Activity is 28%. Further, in the experiment listed under Homo sapiens [6], the Ratio came to 3.1.
In the case of `CCC[N+](C)(C)CCCC[C@H](N)C(=O)O`, the deltaH in the experiment listed under Homo sapiens [1] was -1.4 kcal/mol. In addition, the Kd in experiment [2] amounted to 9.2 µM. For the same molecule, in the experiment filed under Homo sapiens [3], the -TdeltaS is -5.5 kcal/mol. Besides, in the experiment filed under Homo sapiens [4], the deltaG is -6.9 kcal/mol. Besides, the Activity in the experiment listed under Homo sapiens [5] stood at 25%. Besides, the Ratio in the experiment filed under Homo sapiens [6] came out at 3.4.
On to `C[N+](C)(C)CCCCC[C@H](N)C(=O)O`, for which, in the experiment listed under Homo sapiens [1], the deltaH is -1.4 kcal/mol. In addition, the Kd in experiment [2] was 25 µM. Besides, the -TdeltaS in the experiment listed under Homo sapiens [3] is -4.9 kcal/mol. In addition, the deltaG in the experiment listed under Homo sapiens [4] is -6.28 kcal/mol. The Activity in the experiment listed under Homo sapiens [5] turned out to be 30%. Moreover, the Ratio in the experiment filed under Homo sapiens [6] amounted to 2.9.
For the molecule `CC[N+](C)(C)CCCC[C@H](N)C(=O)O`, in the experiment listed under Homo sapiens [1], the deltaH was -6.37 kcal/mol. For the same molecule, the Kd in [2] was found to be 6 µM. In the experiment filed under Homo sapiens [3], the -TdeltaS is -0.75 kcal/mol. The deltaG in the experiment filed under Homo sapiens [4] was -7.12 kcal/mol. Moreover, the Activity in the experiment filed under Homo sapiens [5] stood at 83%. For the same molecule, in the experiment filed under Homo sapiens [6], the Ratio was 2.1.

For orientation: Kd means a measure of binding affinity in units of concentration.
